Values after ≈ are worked out from the molar mass of the structure shown. Where two headings read alike, the source gives them in different places.
Key:
[1] = test system: rat ANIT-induced cholestasis chronic treatment model; experiment: PK/PD modeling of effective exposure in rat ANIT-induced cholestasis chronic treatment model; assay type: in vivo
Procedure: Male Wistar rats were treated with ANIT (0.1% ANIT in chow diet) for 2 weeks. […] The serum samples were collected on day 14 for analysis of biomarkers of hepatobiliary injury (including ALT, AST, bilirubin and bile acids). The PK samples (pre-dose, 0.5, 1, 3, 7, 10 and 24 h, n=3/dose group) were taken on day 13 (at steady-state). […] The mean biomarker data were compared to the PK data (average concentration at each dose) for the modeling. The IC80 was determined using the Inhibitory effect Imax model (effect C=0 at Imax, C=infinity at E0) built in Phoenix WinNonlin 6.3 software. […] Therefore, we chose to use a mean of the IC80 for the four biomarkers (total bilirubin, total bile acids, ALT and AST) as the IC80 for efficacy in this model. From these studies, the IC80 of LJN452 was 0.127 ng/ml and the corresponding AUC0-24 h was 3.05 ng*h/ml (Table 1), and the corresponding efficacious dose is approximately 0.01 mg/kg (based on Table 1 and Table 2).
E0, effect at zero drug concentration; Imax, maximal drug effect; IC80, drug concentration producing 80% of the maximum effect.
The PK samples (pre-dose, 0.5, 1, 3, 7, 10 and 24 h, n=3/dose group) were taken on day 13 (at steady-state). AUC0-24 h was determined using Phoenix WinNonlin 6.3 software and the average concentrations were calculated from mean of AUC0-24 h at each dose (divided the AUC0-24 h by 24 h). The individual biomarker data were compared to the PK data (average concentration at each dose) for the modeling. Since the lowest dose (0.01 mg/kg) already approached maximal efficacy, the IC80 was chosen as the measurement of the efficacious exposure (Table 1). The IC80 was determined using the Inhibitory effect Imax model (effect C=0 at Imax, C=infinity at E0) built in Phoenix WinNonlin 6.3 software.
E0: effect at zero drug concentration; Imax: maximal drug effect IC80, drug concentration producing 80% of the maximum effect.

[2] = Multiple oral dose plasma pharmacokinetics in healthy subjects; assay type: in vivo, human; settings: for Cmax / AUC / Tmax: human, plasma
[3] = effect at zero drug concentration, 2-week rat ANIT model, serum
[4] = maximal drug effect, 2-week rat ANIT model, serum
[5] = healthy subjects, 10 μg qd, Day 1, plasma, mean
[6] = healthy subjects, 10 μg qd, Day 13, plasma, mean
[7] = healthy subjects, 30 μg qd, Day 1, plasma, mean
[8] = healthy subjects, 30 μg qd, Day 13, plasma, mean
[9] = healthy subjects, 60 μg qd, Day 1, plasma, mean
[10] = healthy subjects, 60 μg qd, Day 13, plasma, mean
[11] = healthy subjects, 100 μg qd, Day 1, plasma, mean
[12] = healthy subjects, 100 μg qd, Day 13, plasma, mean

O=C(O)c1cc(F)c2nc(N3C4CC[C@H]3CC(OCc3c(-c5ccccc5OC(F)(F)F)noc3C3CC3)C4)sc2c1 (stereo partly shown) [Compound A]
Mean (efficacious AUC0-24 h) ([1]; AUC0-24 h corresponding to mean IC80, rat ANIT model): 3.05 ng·h/mL | IC80 ([1]; drug concentration producing 80% of the maximum effect, rat ANIT model, read-out: IC80, ALT): 0.054 ng/mL (≈ 0.0895 nM) | IC80 ([1]; drug concentration producing 80% of the maximum effect, rat ANIT model, read-out: IC80, AST): 0.076 ng/mL (≈ 0.126 nM) | IC80 ([1]; drug concentration producing 80% of the maximum effect, rat ANIT model, read-out: IC80, Total bile acids): 0.155 ng/mL (≈ 0.257 nM) | IC80 ([1]; drug concentration producing 80% of the maximum effect, rat ANIT model, read-out: IC80, Total bilirubin): 0.223 ng/mL (≈ 0.369 nM) | E0, ALT [1, 3]: 138.2 U/L | E0, AST [1, 3]: 272.8 U/L | E0, Total bile acids [1, 3]: 147.8 µmol/L | E0, Total bilirubin [1, 3]: 2.3 mg/dL | Imax, ALT [1, 4]: 84.2 U/L | Imax, AST [1, 4]: 140.3 U/L | Imax, Total bile acids [1, 4]: 125.5 µmol/L | Imax, Total bilirubin [1, 4]: 2.0 mg/dL | IC80 ([1]; mean of IC80 for total bilirubin, total bile acids, ALT and AST, rat ANIT model, read-out: Mean (IC80)): 0.127 ng/mL (≈ 0.21 nM) | corresponding efficacious dose ([1]; rat ANIT model, based on Table 1 and Table 2): approximately 0.01 mg/kg | Racc [2, 5]: 1.00 | Tlast [2, 5]: 23.9 h | Racc [2, 6]: 1.87 | Tlast [2, 6]: 23.6 h | Racc [2, 7]: 1.00 | Tlast [2, 7]: 23.9 h | Racc [2, 8]: 1.21 | Tlast [2, 8]: 23.6 h | Racc [2, 9]: 1.00 | Tlast [2, 9]: 23.9 h | Racc [2, 10]: 1.66 | Tlast [2, 10]: 22.3 h | Racc [2, 11]: 1.00 | Tlast [2, 11]: 23.9 h | Racc [2, 12]: 1.41 | Tlast [2, 12]: 23.6 h | Cmax ([2]; oral, 10 μg, average Cmax at day 13 for a dose level of 10 μg, exposures for the doses 10-100 μg normalized to 10 μg): 0.32 ng/mL | AUC ([2]; oral, 10 μg, exposures for the doses 10-100 μg normalized to 10 μg, read-out: average AUCtau at day 13 for a dose level of 10 μg): 4.84 ng·h/mL | AUC ([2]; oral, 10 ug, healthy subjects, 10 μg qd, Day 1, plasma, mean, read-out: AUCtau): 2.88 ng·h/mL | Cmax ([2]; oral, 10 ug, healthy subjects, 10 μg qd, Day 1, plasma, mean, read-out: Cmax): 0.212 ng/mL | Tmax ([2]; oral, 10 ug, healthy subjects, 10 μg qd, Day 1, plasma, median, read-out: Tmax): 4 h | AUC ([2]; oral, 10 ug, healthy subjects, 10 μg qd, Day 13, plasma, mean, read-out: AUCtau): 4.88 ng·h/mL | Cmax ([2]; oral, 10 ug, healthy subjects, 10 μg qd, Day 13, plasma, mean, read-out: Cmax): 0.319 ng/mL | Tmax ([2]; oral, 10 ug, healthy subjects, 10 μg qd, Day 13, plasma, median, read-out: Tmax): 4 h | AUC ([2]; oral, 30 ug, healthy subjects, 30 μg qd, Day 1, plasma, mean, read-out: AUCtau): 11.7 ng·h/mL | Cmax ([2]; oral, 30 ug, healthy subjects, 30 μg qd, Day 1, plasma, mean, read-out: Cmax): 0.894 ng/mL | Tmax ([2]; oral, 30 ug, healthy subjects, 30 μg qd, Day 1, plasma, median, read-out: Tmax): 6 h | AUC ([2]; oral, 30 ug, healthy subjects, 30 μg qd, Day 13, plasma, mean, read-out: AUCtau): 14 ng·h/mL | Cmax ([2]; oral, 30 ug, healthy subjects, 30 μg qd, Day 13, plasma, mean, read-out: Cmax): 0.943 ng/mL | Tmax ([2]; oral, 30 ug, healthy subjects, 30 μg qd, Day 13, plasma, median, read-out: Tmax): 4 h | AUC ([2]; oral, 60 ug, healthy subjects, 60 μg qd, Day 1, plasma, mean, read-out: AUCtau): 16.2 ng·h/mL | Cmax ([2]; oral, 60 ug, healthy subjects, 60 μg qd, Day 1, plasma, mean, read-out: Cmax): 1.22 ng/mL | Tmax ([2]; oral, 60 ug, healthy subjects, 60 μg qd, Day 1, plasma, median, read-out: Tmax): 4 h | AUC ([2]; oral, 60 ug, healthy subjects, 60 μg qd, Day 13, plasma, mean, read-out: AUCtau): 25.3 ng·h/mL | Cmax ([2]; oral, 60 ug, healthy subjects, 60 μg qd, Day 13, plasma, mean, read-out: Cmax): 1.61 ng/mL | Tmax ([2]; oral, 60 ug, healthy subjects, 60 μg qd, Day 13, plasma, median, read-out: Tmax): 4 h | AUC ([2]; oral, 100 ug, healthy subjects, 100 μg qd, Day 1, plasma, mean, read-out: AUCtau): 30.3 ng·h/mL | Cmax ([2]; oral, 100 ug, healthy subjects, 100 μg qd, Day 1, plasma, mean, read-out: Cmax): 2.4 ng/mL | Tmax ([2]; oral, 100 ug, healthy subjects, 100 μg qd, Day 1, plasma, median, read-out: Tmax): 4 h | AUC ([2]; oral, 100 ug, healthy subjects, 100 μg qd, Day 13, plasma, mean, read-out: AUCtau): 50.2 ng·h/mL | Cmax ([2]; oral, 100 ug, healthy subjects, 100 μg qd, Day 13, plasma, mean, read-out: Cmax): 3.47 ng/mL | Tmax ([2]; oral, 100 ug, healthy subjects, 100 μg qd, Day 13, plasma, median, read-out: Tmax): 4 h | Tmax ([2]; po, once daily oral dosing 10-100 μg, fasted, post-dose, read-out: Tmax range): 3 to 10 h | Tmax ([2]; po, once daily oral dosing for 13 days, fasted, Day 13, across all doses, read-out: median Tmax): 4 h | dose proportionality of Cmax and AUCtau ([2]; once daily doses for 13 days, 10-100 μg): approximately dose-proportional increase | time to steady-state ([2]; once daily oral dosing, trough levels): ≤ 4 days

From patent US20210386729A1, “METHODS FOR TREATING LIVER DISORDERS USING FXR AGONISTS” (NOVARTIS AG, priority 2016, published 2021)
